{
  "source": "patent US20170143674A1",
  "about": "“Use of Glutaryl Histamine for the Treatment of Respiratory Tract Diseases” (LTD \"VALENTA-INTELLEKT\", priority 2011, published 2017)",
  "key": {"[1]": {"test_system": "Staphylococcus aureus (mouse-adapted strain 10)", "experiment": "animal or person", "type": "in vivo, mice", "settings": "for Mortality rate (%) / Survival rate (%): tenth day", "procedure": "The tested medicament was glutaryl histamine in doses of 15, 30 and 45 mg/kg. Solutions of the tested medicament for oral administration were prepared ex tempore. Levofloxacin (in oral administration) was used as a therapeutic preparation since this substance was the most experimentally studied antibiotic approved in clinical practice many years ago.\nStaphylococcus aureus (mouse-adaptedstrain 10) was used as an infectious agent. Mice were infected intravenously.\n(§1) Firstly, there was determined a lethal dose (LD100) of staphylococcus to be intravenously administered to this line of mice having a certain weight. Fatal cases among mice were registered every day for ten days. The lethal dose was 3×10^8 CFU/mouse. […] For this purpose, mice were housed into cages (10 animals per cage) and infected with a lethal dose of staphylococcus. One hour after each mouse was administered orally levofloxacin in doses of 1, 2, 4, 6, 8, 10, and 12 mg/kg. A group of mice infected with a lethal dose of staphylococcus without the treatment was considered as a control group. Fatal cases among mice were registered every day for ten days.\nThe next step of the experiment was to study an effect of combined administration of glutaryl histamine and levofloxacin on a model of staphylococcal sepsis in mice.\n(§2) In the experiment, mice were housed in following groups (10 animals per cage):\n(§3) Glutaryl histamine was administered orally in the corresponding doses to the mice of groups 3, 4, 5, 6, 7, and 8 for 5 days. Five day after, all groups of mice were intravenously administered with 0.2 ml of Staphylococcus aureus in the lethal dose. […] After infection and administration of levofloxacin, glutaryl histamine was administered to mice of groups 3-8 for additional 5 days. During the experiment, the animals were observed every day, and fatal cases were registered (see Table 13)."}, "[2]": {"test_system": "Escherichia coli (mouse-adapted strain 4300)", "experiment": "animal or person", "type": "in vivo, mice", "settings": "for Mortality rate (%) / Survival rate (%): tenth day", "procedure": "Escherichia coli (mouse-adaptedstrain 4300, Institute collection) was used as an infectious agent. Mice were infected intravenously.\nas §1, with “there were” for “there was”, “of Escherichia coli” for “of staphylococcus”, “mice with” for “mice having”, “days.” for “days. The lethal dose was 3×10^8 CFU/mouse.”, “of Escherichia coli.” for “of staphylococcus.”\nThe next step of the experiment was to study an effect of combined administration of glutaryl histamine and levofloxacin on a model of E. coli sepsis in mice.\nas §2\nas §3, with “to” for “to the”, “administered” for “administered with”, “Escherichia coli” for “Staphylococcus aureus”, “14).” for “13).”"}, "[3]": {"settings": "day 1, glutaryl histamine 15 mg/kg"}, "[4]": {"settings": "day 1, glutaryl histamine 30 mg/kg"}, "[5]": {"settings": "day 1, glutaryl histamine 45 mg/kg"}, "[6]": {"settings": "day 2, glutaryl histamine 15 mg/kg"}, "[7]": {"settings": "day 2, glutaryl histamine 30 mg/kg"}, "[8]": {"settings": "day 2, glutaryl histamine 45 mg/kg"}, "[9]": {"settings": "day 3, glutaryl histamine 15 mg/kg"}, "[10]": {"settings": "day 3, glutaryl histamine 30 mg/kg"}, "[11]": {"settings": "day 3, glutaryl histamine 45 mg/kg"}, "[12]": {"settings": "day 4, glutaryl histamine 15 mg/kg"}, "[13]": {"settings": "day 4, glutaryl histamine 30 mg/kg"}, "[14]": {"settings": "day 4, glutaryl histamine 45 mg/kg"}, "[15]": {"settings": "day 5, glutaryl histamine 15 mg/kg"}, "[16]": {"settings": "day 5, glutaryl histamine 30 mg/kg"}, "[17]": {"settings": "day 5, glutaryl histamine 45 mg/kg"}, "[18]": {"settings": "day 6, glutaryl histamine 15 mg/kg"}, "[19]": {"settings": "day 6, glutaryl histamine 30 mg/kg"}, "[20]": {"settings": "day 6, glutaryl histamine 45 mg/kg"}, "[21]": {"settings": "day 7, glutaryl histamine 15 mg/kg"}, "[22]": {"settings": "day 7, glutaryl histamine 30 mg/kg"}, "[23]": {"settings": "day 7, glutaryl histamine 45 mg/kg"}, "[24]": {"settings": "day 8, glutaryl histamine 15 mg/kg"}, "[25]": {"settings": "day 8, glutaryl histamine 30 mg/kg"}, "[26]": {"settings": "day 8, glutaryl histamine 45 mg/kg"}, "[27]": {"settings": "day 9, glutaryl histamine 15 mg/kg"}, "[28]": {"settings": "day 9, glutaryl histamine 30 mg/kg"}, "[29]": {"settings": "day 9, glutaryl histamine 45 mg/kg"}, "[30]": {"settings": "day 10, glutaryl histamine 15 mg/kg"}, "[31]": {"settings": "day 10, glutaryl histamine 30 mg/kg"}, "[32]": {"settings": "day 10, glutaryl histamine 45 mg/kg"}},
  "data": [
    {"smiles": "O=C(O)CCCC(=O)NCCc1c[nH]cn1", "note": "[glutaryl histamine]", "values": [
      {"measurement": "died/survived animals", "setting": "[1]; [3]", "value": "0/10"},
      {"measurement": "died/survived animals", "setting": "[1]; [4]", "value": "0/10"},
      {"measurement": "died/survived animals", "setting": "[1]; [5]", "value": "0/10"},
      {"measurement": "died/survived animals", "setting": "[1]; [6]", "value": "0/10"},
      {"measurement": "died/survived animals", "setting": "[1]; [7]", "value": "0/10"},
      {"measurement": "died/survived animals", "setting": "[1]; [8]", "value": "0/10"},
      {"measurement": "died/survived animals", "setting": "[1]; [9]", "value": "0/10"},
      {"measurement": "died/survived animals", "setting": "[1]; [10]", "value": "0/10"},
      {"measurement": "died/survived animals", "setting": "[1]; [11]", "value": "1/9"},
      {"measurement": "died/survived animals", "setting": "[1]; [12]", "value": "1/9"},
      {"measurement": "died/survived animals", "setting": "[1]; [13]", "value": "1/9"},
      {"measurement": "died/survived animals", "setting": "[1]; [14]", "value": "2/8"},
      {"measurement": "died/survived animals", "setting": "[1]; [15]", "value": "2/8"},
      {"measurement": "died/survived animals", "setting": "[1]; [16]", "value": "3/7"},
      {"measurement": "died/survived animals", "setting": "[1]; [17]", "value": "4/6"},
      {"measurement": "died/survived animals", "setting": "[1]; [18]", "value": "3/7"},
      {"measurement": "died/survived animals", "setting": "[1]; [19]", "value": "4/6"},
      {"measurement": "died/survived animals", "setting": "[1]; [20]", "value": "5/5"},
      {"measurement": "died/survived animals", "setting": "[1]; [21]", "value": "4/6"},
      {"measurement": "died/survived animals", "setting": "[1]; [22]", "value": "6/4"},
      {"measurement": "died/survived animals", "setting": "[1]; [23]", "value": "7/3"},
      {"measurement": "died/survived animals", "setting": "[1]; [24]", "value": "6/4"},
      {"measurement": "died/survived animals", "setting": "[1]; [25]", "value": "7/3"},
      {"measurement": "died/survived animals", "setting": "[1]; [26]", "value": "8/2"},
      {"measurement": "died/survived animals", "setting": "[1]; [27]", "value": "7/3"},
      {"measurement": "died/survived animals", "setting": "[1]; [28]", "value": "7/3"},
      {"measurement": "died/survived animals", "setting": "[1]; [29]", "value": "8/2"},
      {"measurement": "died/survived animals", "setting": "[1]; [30]", "value": "8/2"},
      {"measurement": "died/survived animals", "setting": "[1]; [31]", "value": "7/3"},
      {"measurement": "died/survived animals", "setting": "[1]; [32]", "value": "8/2"},
      {"measurement": "Mortality rate (%)", "setting": "[1]; glutaryl histamine 15 mg/kg", "value": 80, "unit": "%"},
      {"measurement": "Survival rate (%)", "setting": "[1]; glutaryl histamine 15 mg/kg", "value": 20, "unit": "%"},
      {"measurement": "Mortality rate (%)", "setting": "[1]; glutaryl histamine 30 mg/kg", "value": 70, "unit": "%"},
      {"measurement": "Survival rate (%)", "setting": "[1]; glutaryl histamine 30 mg/kg", "value": 30, "unit": "%"},
      {"measurement": "Mortality rate (%)", "setting": "[1]; glutaryl histamine 45 mg/kg", "value": 80, "unit": "%"},
      {"measurement": "Survival rate (%)", "setting": "[1]; glutaryl histamine 45 mg/kg", "value": 20, "unit": "%"},
      {"measurement": "died/survived animals", "setting": "[2]; [3]", "value": "0/10"},
      {"measurement": "died/survived animals", "setting": "[2]; [4]", "value": "0/10"},
      {"measurement": "died/survived animals", "setting": "[2]; [5]", "value": "0/10"},
      {"measurement": "died/survived animals", "setting": "[2]; [6]", "value": "0/10"},
      {"measurement": "died/survived animals", "setting": "[2]; [7]", "value": "0/10"},
      {"measurement": "died/survived animals", "setting": "[2]; [8]", "value": "1/9"},
      {"measurement": "died/survived animals", "setting": "[2]; [9]", "value": "0/10"},
      {"measurement": "died/survived animals", "setting": "[2]; [10]", "value": "0/10"},
      {"measurement": "died/survived animals", "setting": "[2]; [11]", "value": "1/9"},
      {"measurement": "died/survived animals", "setting": "[2]; [12]", "value": "1/9"},
      {"measurement": "died/survived animals", "setting": "[2]; [13]", "value": "1/9"},
      {"measurement": "died/survived animals", "setting": "[2]; [14]", "value": "3/7"},
      {"measurement": "died/survived animals", "setting": "[2]; [15]", "value": "2/8"},
      {"measurement": "died/survived animals", "setting": "[2]; [16]", "value": "3/7"},
      {"measurement": "died/survived animals", "setting": "[2]; [17]", "value": "5/5"},
      {"measurement": "died/survived animals", "setting": "[2]; [18]", "value": "5/5"},
      {"measurement": "died/survived animals", "setting": "[2]; [19]", "value": "6/4"},
      {"measurement": "died/survived animals", "setting": "[2]; [20]", "value": "7/3"},
      {"measurement": "died/survived animals", "setting": "[2]; [21]", "value": "6/4"},
      {"measurement": "died/survived animals", "setting": "[2]; [22]", "value": "7/3"},
      {"measurement": "died/survived animals", "setting": "[2]; [23]", "value": "8/2"},
      {"measurement": "died/survived animals", "setting": "[2]; [24]", "value": "8/2"},
      {"measurement": "died/survived animals", "setting": "[2]; [25]", "value": "7/3"},
      {"measurement": "died/survived animals", "setting": "[2]; [26]", "value": "9/1"},
      {"measurement": "died/survived animals", "setting": "[2]; [27]", "value": "8/2"},
      {"measurement": "died/survived animals", "setting": "[2]; [28]", "value": "8/2"},
      {"measurement": "died/survived animals", "setting": "[2]; [29]", "value": "9/1"},
      {"measurement": "died/survived animals", "setting": "[2]; [30]", "value": "8/2"},
      {"measurement": "died/survived animals", "setting": "[2]; [31]", "value": "8/2"},
      {"measurement": "died/survived animals", "setting": "[2]; [32]", "value": "9/1"},
      {"measurement": "Mortality rate (%)", "setting": "[2]; glutaryl histamine 15 mg/kg", "value": 80, "unit": "%"},
      {"measurement": "Survival rate (%)", "setting": "[2]; glutaryl histamine 15 mg/kg", "value": 20, "unit": "%"},
      {"measurement": "Mortality rate (%)", "setting": "[2]; glutaryl histamine 30 mg/kg", "value": 80, "unit": "%"},
      {"measurement": "Survival rate (%)", "setting": "[2]; glutaryl histamine 30 mg/kg", "value": 20, "unit": "%"},
      {"measurement": "Mortality rate (%)", "setting": "[2]; glutaryl histamine 45 mg/kg", "value": 90, "unit": "%"},
      {"measurement": "Survival rate (%)", "setting": "[2]; glutaryl histamine 45 mg/kg", "value": 10, "unit": "%"}
    ]}
  ]
}
